The target of the test is T1, NfoR (NAD(P)H-flavin oxidoreductase) (Staphylococcus aureus, UniProt Q2FVA4).
T1 construct: gene SAOUHSC_02829; N-terminal 6xHis tag, pET-28a (pEnfoR), E. coli Rosetta (DE3), HisTrap; dimer by homology model only; residues named: His100, His128, Cys163, Met165
T1 sequence (Q2FVA4 1-223): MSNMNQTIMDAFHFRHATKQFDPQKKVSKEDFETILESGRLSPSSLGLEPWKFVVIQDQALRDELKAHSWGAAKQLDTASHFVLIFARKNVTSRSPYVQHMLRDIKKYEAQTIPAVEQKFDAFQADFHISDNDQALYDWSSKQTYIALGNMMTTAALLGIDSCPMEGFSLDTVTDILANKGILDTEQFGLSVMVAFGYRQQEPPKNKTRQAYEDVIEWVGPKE
Description: HPLC of flavin released by heating the purified protein. Type of test: binding. The note with it: FMN co-purified with the protein; non-covalent; occupancy, not an affinity.

Each structure is given as a SMILES string.

As to `Cc1cc2nc3c(=O)[nH]c(=O)nc-3n(C[C@H](O)[C@H](O)[C@H](O)COP(=O)(O)O)c2cc1C` [FMN], the “percent of FMN/isolated NfoR” value stood at 79.98%.
